Experiments:
Type in all cases: cell-based
[1] = system: SDOV3 cells (an ovarian cancer cell line); experiment: Detection of ovarian cancer cells: absorption and intracellular deacylation to a fluorescent structure, fluorescence microscopy; conditions: folate-free medium (no FBS), washed with HBSS, 20× immersion objective
Description: Compound 24 and comparative compound A were evaluated for their ability to be absorbed by cancer cells and then, in the case of compound 24, deacylated by intracellular esterases so as to regenerate a fluorescent structure. Specifically, approximately 500,000 SDOV3 cells (an ovarian cancer cell line) were seeded into separate 35 mm culture dishes containing a folate-free growth medium (RPMI+10% FBS). The next day, the medium was replaced with a folate-free medium (no FBS). In one culture dish, the medium was supplemented with 25 micromolar of compound 24; and, in another culture dish, the medium was supplemented with 50 micromolar of comparative compound A. After incubation, the cells were washed with HBSS (Hank's balanced salt solution) to remove unbound compound. The cells were then imaged with a 20× immersion objective on a standard upright fluorescent microscope. […] FIG. 1 illustrates a picture showing the fluorescence generated. Note that only the cancer cells evidenced fluorescence and that the solution remained non-fluorescent. […] This evidences that that composition was not suitable for use in the methods described herein.

[2] = system: MCF7 cells, a breast cancer cell line that expresses folate binding protein; experiment: Labeling of MCF7 cells (correlation between folic acid receptors and fluorescence intensity); conditions: MCF cells, 10 uM, one hour, folate-free RPMI, no FBS
Description: In this experiment, the procedures set forth above were repeated with the exception that SKOV3 cells were replaced with MCF7 cells—a breast cancer cell line that expresses folate binding protein albeit at a level lower than that of the SKOV3 cells. […] However, the fluorescent intensity generated by the MCF7 cells was less than that generated by SKOV3 cells.
Specifically, MCF cells were labeled at 10 uM with compound 24 for one hour in folate-free RPMI, no FBS. Cells were washed and imaged.

[3] = target: T1, folate binding protein (folate receptor) on SKOV3 cells (Homo sapiens, UniProt P15328); experiment: Folate competition: labeling of ovarian cancer cells via the folic acid receptor; conditions: 10 μM compound alone vs 10 μM + 1 mM folate (100×)
T1 construct: endogenous in cells; host or cells: SKOV3 cells
Description: This example establishes that compound 24 is specific for the folate receptor. Specifically, compound 24 was used in a folate free medium and in a medium using excess folate that competed with compound 24. The rationale is that in the presence of excess folate, compound 24 would have to compete for binding to the folate binding protein and therefore there would be less signal than when compound 24 was the sole source of folate.
To test this hypothesis, SKOV3 cells were incubated with 10 μM of compound 24 or with 10 μM of compound 24+1 mM folate (100×s). Cells were then washed and imaged as before.
All images were analyzed using exactly the same parameters. Mean intensity was measured from identical regions with in each image. […] These images establish that compound 24 binds to cells through the folate binding protein and not by some other route.

[4] = system: SKOV3 cells; experiment: Dose response of fluorescence generated in SKOV3 cells; conditions: 1 hour; for Mean intensity: SKOV3 cells, RPMI + 0.25% BSA, image J
Description: This experiment establishes that compound 24 provides a dose response relative to the fluorescence generated. Specifically, SKOV3 cells were incubated with 10 μM, 25 μM, or 50 μM of compound 24 in RPMI supplemented with 0.25% BSA. Cells were incubated for 1 hour then washed with HBSS and imaged as before.
All images were analyzed using exactly the same parameters using the image J software suite. Mean intensity was measured from identical regions with in each image. […] While BSA was used as a supplement, acylated BSA may be more practical.

T1 sequence (P15328 25-234): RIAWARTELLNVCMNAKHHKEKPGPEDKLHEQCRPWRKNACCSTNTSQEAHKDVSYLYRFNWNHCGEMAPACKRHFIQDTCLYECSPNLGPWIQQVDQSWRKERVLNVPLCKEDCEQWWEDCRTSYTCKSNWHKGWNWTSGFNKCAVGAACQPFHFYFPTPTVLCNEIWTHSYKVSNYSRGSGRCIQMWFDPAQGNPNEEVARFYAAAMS

Row | Compound | fluorescent signal of cancer cells after incubation ([1]; 50 micromolar) | labeling of cells (fluorescence) [2] | fluorescent signal of cancer cells after incubation ([1]; 25 micromolar) | competition by excess folate for labeling ovarian cancer cells [3] | Mean intensity ([4]; 10 μM) | Mean intensity ([4]; 25 μM) | Mean intensity ([4]; 50 μM) | dose response in labeling cells ([4]; SKOV3 cells, 10, 25, 50 μM)
1 | Nc1nc2ncc(CNc3ccc(C(=O)NC(CCC(=O)NCCCCCNC(=O)c4cccc(-c5c6ccc(=O)cc-6oc6cc(O)ccc56)c4C(=O)O)C(=O)O)cc3)nc2c(=O)[nH]1 (centres unmarked) [comparative compound A, reference compound] | showed a burst of fluorescence but immediately the fluorescence was bleached |  |  |  |  |  |  | 
2 | O,O′-(5-(3-(4-((4-(4-(((2-amino-4-oxo-3,4-dihydropteridin-6-yl)methyl)amino)benzamido)-5-methoxy-5-oxopentanamido)methyl)phenyl)thioureido)-3-oxo-3H-spiro[isobenzofuran-1,9′-xanthene]-3′,6′-diyl) bis)(2-methoxyethyl) Disuccinate [compound 24] |  | labeling is faint | clear, consistent and unambiguous | folate competes with compound 24 | 312.8 | 360.4 | 545.5 | clear dose response

Reference: patent US10890588B2, “Compositions and methods for detecting cancer cells in a tissue sample” (ISI Life Sciences, Inc., priority 2016, dated 2021)
